Assays:
SNL rats = assay: Reversal of thermal hyperalgesia and tactile hypersensitivity in SNL rats (neuropathic pain model); format: in vivo, rat
naive rats = assay: Motor function and paralysis after intrathecal injection (hindlimb tests, tail-flick) in naive rats; format: in vivo, rat
Procedure: Intrathecal (i.th.) catheterization. While under ketamine/xylazine (80/12 mg/kg, i.p.) anesthesia, some groups of rats were implanted with i.th. catheters (polyethylene 10, 7.8 cm) through atlanto-occipital membrane extended to the level of the lumbar spinal cord for drug administration. Animals were allowed to recover for 7 days. Drugs were injected in a volume of 5 μl, followed by a 1 μl air bubble and a 9 μl saline flush.
Tail-flick test. The hot-water tail-flick test was performed by placing the distal third of the tail in a water bath maintained at 52° C. The latency until tail withdrawal from the bath was determined and compared among the treatments. A 10 sec cutoff was used to avoid tissue damage. Data were converted to percentage of antinociception by the following formula: (response latency−baseline latency)/(cutoff−baseline latency)*100.

[1] = test system: bradykinin-induced plasma extravasation; assay: Bradykinin-induced rat paw oedema and plasma extravasation, intraplantar injection; format: in vivo
Procedure: Experiments were conducted on non-fasted male Sprague-Dawley rats (250-300 g) kept in a room controlled for temperature (22±2° C.) and illumination (12 h on and 12 h off). Under ketamine/xylazine (80/12 mg/kg, i.p.) anesthesia animals received an injection of Evans Blue (30 mg/mL/kg, i.v.) via tail vein and baseline paw volume for both hindpaws was measured by use of a plethysmometer (Ugo Basile). Animals then received 0.1 mL i.pl. injections in one hindpaw of normal saline (0.9% NaCl) containing BK either alone or mixed with HOE140 or LYS1044 (10 nmol/paw each). The contralateral paw received 0.1 mL saline and was used as a control. Oedema was measured at several 30, 60 and 90 min post i.pl. injections and expressed in mL as the difference (mL) between the test and control paws. Three hours post BK injections, animals were sacrificed and patches (10×5 mm) of the dorsal skin from both hindpaws were collected. The skin patches were then incubated separately in Eppendorf tubes containing 1.8 mL formamide at 60° C. water bath for 24 h to extract the dye. The tissue extraction was then centrifuged at 15000 rpm for 15 min and the supernatant was pipetted to a 96 well plate as triplicates and the absorbance was determined at 620 nm. The difference of the mean absorbance between the two hindpaws of each rat was used to compare the degree of plasma extravasation in different treatment groups.

[2] = Stability in plasma (t1/2)

CC[C@H](C)[C@H](NC(=O)[C@H](CCCNC(=N)N)NC(=O)[C@H](CC(C)C)NC(=O)[C@@H](N)Cc1ccccc1)C(=O)N[C@@H](CCCNC(=N)N)C(=O)N1CCC[C@H]1C(=O)N[C@@H](CCCCN)C(=O)O [LYS1044, Phe-Leu-Arg-Ile-Arg-Pro-Lys]
anti-allodynic effect (SNL rats; tactile hypersensitivity): anti-allodynic effects | anti-hyperalgesic effect (SNL rats; thermal hyperalgesia): dose dependent anti-hyperalgesic | motor function after intrathecal (spinal) injection (naive rats; intrathecal injection, naive rats): does not produce motor impairment | prevention of dynorphin A-(2-13)-induced paralysis (naive rats; spinal administration): prevents dynorphin A-(2-13)-induced paralysis | changes in paw volume [1]: does not show changes in paw volume | prevention of bradykinin-induced plasma extravasation [1]: does not prevent bradykinin-induced plasma extravasation | toxic effect on rotarod experiment (Rotarod experiment): no toxic effect | half-life [2]: < 3 h

Reference: US10428115B2, “Dynorphin A analogs with bradykinin receptors specificity for modulation of neuropathic pain” (THE ARIZONA BOARD OF REGENTS ON BEHALF OF THE UNIVERSITY OF …, priority 2013, dated 2019)
